From publication PMC12647017, “Discovery and optimization of a synthetic small protein domain targeting antibodies” (Frontiers in Bioengineering and Biotechnology, 2025)

System: hIgG
Experiment: ELISA of soluble fractions of native and mutated WW domains against hIgG
Assay type: binding
Details: human IgG, soluble fraction, E6 detected with anti-HA-HRP, E6_M2 and Rosetta extract with anti-His-HRP, ABTS
Method: The soluble fraction of 100 mL cultures (100 μL) was used for ELISA against hIgG, as described in ([Dias et al., 2025]). Briefly, the target hIgG was immobilized (1 μg/well) in 0.1 M Sodium Bicarbonate pH 8.6 in Immuno Maxisorp ELISA plates (Thermo Fisher), overnight at 4 °C. In the next day, the unbound hIgG was removed, and the wells washed with PBS1x. To the wells was added the blocking solution – 5% (v/v) Soya Milk in PBS 1x and incubated for 1 h at room temperature. The wells were washed and incubated with 100 µL of soluble fraction (∼0.065 mg/mL total protein) at room temperature for 2 h.
The unbound WW domains were removed, and the wells were washed using 4 times PBS1x-0.05% Tween 20 and 1 time with PBS1x. For detection was used 1:1,000 anti-His-HRP conjugated antibody (MA1-21315-HRP, Invitrogen) in 1% (v/v) Soya Milk in PBS1x and incubated for 1 h at RT, after that the wells were washed with 5x PBS1x. The detection occurred with ABTS (2,2′-azino-bis(3-ethylbenzothiazoline-6-sulfonic acid) ready solution (11684302001, Roche), which was incubated in the dark for 1 h at 37 °C. Finally, the results were analysed in a microplate reader (Tecan) with appropriate filter at Abs405nm.
Figure S6 – Production and signal characterization of mutated versions. A – Tris-Tricine gels after cell lysis of the WW prototype sequence (WWp, band at ~8KDa), mutated WWp5_4 scaffold (WWp5_4_M2, band at ~8 kDa) and mutated E6 (E6_M2, band at ~ 12kDa). Samples were normalized 90µg total protein/lane. M - Precision Plus Protein™ Dual Xtra Prestained, Biorad; SF – soluble fraction; ISF – insoluble fraction. B1, B2, and B3 indicate production batchs in 1L culture, except for WWp B1 – 100 mL, WWp_5_4 B2 – 900 mL. Stained with Simplyblue. […] The detection of the clones was made with anti-His conjugated antibody with HRP and detected with ABTS as substrate.
Figure S7 – Comparison between ELISA signal of E6 versus E6_M2. […] The expression levels were detected by direct coating of the microplate well with the soluble fraction of the extract. […] All were detected with ABTS as substrate.

“SMGLPPGWDEYKT RRFKL GKTYYYNH HILS KTSTWTDPRMSS [Clone E6]” was tested, and the “binding signal relative to negative control (E. coli Rosetta extract)” value was 1.5 times.
